Earlier results, collected in patent publication US20250041461A1, “[177LU] LUTETIUM-PSMA I&T COMPOSITION AND DOSIMETRY, KIT, METHOD OF MAKING, AND METHOD OF USING THEREOF” (Curium US LLC, priority 2023, published 2025).
Where two headings read alike, the source gives them in different places.

Experiments:
[1] = cited from earlier work; for Absorbed Dose, Mean: Pluvicto; for dose estimate, Mean: Pluvicto Spc
prostate cancer = conditions: in vivo; cited from earlier work
[2] = cited from earlier work

For `O=C([O-])CN1CCN(CC(=O)[O-])CCN(CC(=O)NCC2CCC(C(=O)N[C@@H](Cc3ccc4ccccc4c3)C(=O)NCCCC[C@H](NC(=O)N[C@@H](CCC(=O)O)C(=O)O)C(=O)O)CC2)CCN(CC(=O)[O-])CC1.[177Lu+3]` (some centres unmarked) [^177Lu-PSMA-617], the “Absorbed Dose, Mean” value ([1]; Bladder) is given as 0.32 Gy/GBq, the “dose estimate, Mean” value ([1]; Heart Wall) is given as 0.17 Gy/GBq and the “Absorbed Dose, Mean” value ([1]; Heart) is given as 0.17 Gy/GBq. For the same compound, the “dose estimate, Mean” value ([1]; Kidneys) was 0.43 Gy/GBq, the “Absorbed Dose, Mean” value ([1]; Kidneys) was 0.43 Gy/GBq and the “Absorbed Dose, Mean” value ([1]; Lacrimal Glands) was 2.1 Gy/GBq. For the same compound, the “dose estimate, Mean” value ([1]; Lacrimal gland) was 2.1 Gy/GBq, the “Absorbed Dose, Mean” value ([1]; Left Colon) was 0.58 Gy/GBq and the “dose estimate, Mean” value ([1]; Left colon) was 0.58 Gy/GBq. The “dose estimate, Mean” value ([1]; Liver) was 0.09 Gy/GBq, the “Absorbed Dose, Mean” value ([1]; Liver) was 0.090 Gy/GBq and the “dose estimate, Mean” value ([1]; Rectum) was 0.56 Gy/GBq. The “Absorbed Dose, Mean” value ([1]; Right Colon) was 0.32 Gy/GBq, the “dose estimate, Mean” value ([1]; Right colon) was 0.32 Gy/GBq and the “Absorbed Dose, Mean” value ([1]; Salivary Glands) was 0.63 Gy/GBq. For the same compound, the “dose estimate, Mean” value ([1]; Salivary glands) was 0.63 Gy/GBq, the “dose estimate, Mean” value ([1]; Spleen) was 0.07 Gy/GBq and the “Absorbed Dose, Mean” value ([1]; Spleen) was 0.067 Gy/GBq. For the same compound, the “dose estimate, Mean” value ([1]; Thyroid) was 0.26 Gy/GBq, the “Absorbed Dose, Mean” value ([1]; Thyroid) was 0.26 Gy/GBq and the “dose estimate, Mean” value ([1]; Urinary bladder wall) was 0.32 Gy/GBq. For the same compound, the adverse effects (prostate cancer) was “mainly transient adverse effects”, the “mean renal absorbed dose” value ([2]; VISION trial, 29 patients) was 0.43±0.16 Gy/GBq and the “mean renal absorbed dose” value ([2]; Violet et al.) was 0.39±0.16 Gy/GBq. For the same compound, the “projected cumulative absorbed dose to the kidneys at 6 cycles” value ([2]; Vision trial) was 19±7.3 Gy and the renal toxicities ([2]; Vision trial) was “no renal toxicities were observed”.
